How the values were obtained:
Assay type in all cases: cell-based
MV-4-11 [1] = experiment: Cell viability (CCK-8) assay; conditions: Homo sapiens, 96 h, CCK-8
Protocol: (§1) The plated at a density of 15,000 cells per well, and each well contained 100 µL of medium. Subsequently, different compounds (MGD-AX, MGD-BX, MGD-CX) were added to each well. […] To evaluate the antiproliferative effects of these compounds, the Cell Counting Kit-8 (CCK-8, #CX007, Epizyme, Shanghai, China) was used. All procedures were carried out in strict accordance with the manufacturer’s instructions (Dojindo Laboratories, Mamoto Ken, Japan).

NCI-H929 = experiment: Cell viability (CCK-8) assay; conditions: Homo sapiens, NCI-H929, 96 h
Protocol: as §1

Ocl-Ly3 = experiment: Cell viability (CCK-8) assay; conditions: 96 h, CCK-8
Protocol: as §1

[2] = system: NCI-H929 (MM), MV-4-11(AML), and Ocl-Ly3 (DLBCL) cells; experiment: Cell viability (CCK-8) assay, statements on the whole three-line panel; conditions: for antiproliferative activity (in words): compared with the prototypical IMiDs
Protocol: Multiple cell lines (NCI-H929, OPM-2, U937, Ocl-Ly3, RPMI-8226, MOLM-13, Skm-1, MUTZ-1, SU-DHL-4, TMD8, U2932, WSU-DLCL-2, MV-4-11 and KG-1 cells) were plated into 96-well plates. The plated at a density of 15,000 cells per well, and each well contained 100 µL of medium. Subsequently, different compounds (MGD-AX, MGD-BX, MGD-CX) were added to each well. These compounds’ concentrations were set at 0, 0.01, 0.033, 0.1, 0.33, 1, 3.3, 10 and 33 μM, and the cells were incubated with the compounds for 96 h. To evaluate the antiproliferative effects of these compounds, the Cell Counting Kit-8 (CCK-8, #CX007, Epizyme, Shanghai, China) was used. All procedures were carried out in strict accordance with the manufacturer’s instructions (Dojindo Laboratories, Mamoto Ken, Japan). The half maximal inhibitory concentrations (IC50) values, which represent the concentrations of the test compounds that can inhibit 50% of cell activity, were calculated using GraphPad Prism 8.0 (GraphPad Software Inc., San Diego, CA, USA).

KG-1 = experiment: Cell viability (CCK-8) assay; conditions: Homo sapiens, KG-1, 96 h, read-out: IC50 (μM) KG-1
Protocol: as §1

MOLM-13 = experiment: Cell viability (CCK-8) assay; conditions: Homo sapiens, MOLM-13, 96 h, read-out: IC50 (μM) MOLM-13
Protocol: as §1

MUTZ-1 = experiment: Cell viability (CCK-8) assay; conditions: 96 h, read-out: IC50 (μM) MUTZ-1
Protocol: as §1

OPM-2 = experiment: Cell viability (CCK-8) assay; conditions: Homo sapiens, OPM-2, 96 h, read-out: IC50 (μM) OPM-2
Protocol: as §1

RPMI-8226 = experiment: Cell viability (CCK-8) assay; conditions: Homo sapiens, RPMI-8226, 96 h, read-out: IC50 (μM) RPMI-8226
Protocol: as §1

SU-DHL-4 = experiment: Cell viability (CCK-8) assay; conditions: Homo sapiens, SU-DHL-4, 96 h, read-out: IC50 (μM) SU-DHL-4
Protocol: as §1

Skm-1 = experiment: Cell viability (CCK-8) assay; conditions: Homo sapiens, SKM-1, 96 h, read-out: IC50 (μM) Skm-1
Protocol: as §1

TMD8 = experiment: Cell viability (CCK-8) assay; conditions: Homo sapiens, TMD8, 96 h, read-out: IC50 (μM) TMD8
Protocol: as §1

U2932 = experiment: Cell viability (CCK-8) assay; conditions: Homo sapiens, U2932, 96 h, read-out: IC50 (μM) U2932
Protocol: as §1

U937 = experiment: Cell viability (CCK-8) assay; conditions: Homo sapiens, U-937, 96 h, read-out: IC50 (μM) U937
Protocol: as §1

WSU-DLCL-2 = experiment: Cell viability (CCK-8) assay; conditions: Homo sapiens, WSUDLCL2, 96 h, read-out: IC50 (μM) WSU-DLCL-2
Protocol: as §1

IKZF1-HiBiT = target: T1, IKZF1-HiBiT (Homo sapiens, UniProt Q13422+Q96SW2); experiment: Quantitative degradation assay using the HiBiT system (HEK293T); conditions: HEK-293T; HEK293T IKZF1-HiBiT, 24 h; read-out: maximal degradation (Dmax) on IKZF1
T1 construct: expressed in transfected cells; host or cells: HEK293T
Protocol: (§2) An in vitro quantitative degradation assay utilizing the HiBiT system was carried out as previously described. To evaluate the degradation of IKZF1, IKZF2, and IKZF3 proteins, HEK293T cell lines stably expressing IKZF1-, IKZF2-, IKZF3-, GSPT1- or CK1α-HiBiT were cultured in 96-well plates at 12,000 cells per well. […] After the treatment, cell lysis was carried out using the Nano-Glo HiBiT Lytic Detection System (#N3040, Promega). All lysis operations were strictly carried out according to the manufacturer’s specific protocol. Then, the SpectraMax iD3 instrument (Molecular Devices, San Jose, CA, USA) was used to detect the luminescent signals released by the HiBiT-tagged neosubstrates.

IKZF3-HiBiT = target: T2, IKZF3-HiBiT (Homo sapiens, UniProt Q96SW2+Q9UKT9); experiment: as above; conditions: HEK-293T; HEK293T IKZF3-HiBiT, 24 h; read-out: maximal degradation (Dmax) on IKZF3
T2 construct: expressed in transfected cells; host or cells: HEK293T
Protocol: as §2

MV-4-11 [3] = experiment: Cell apoptosis assay (Annexin V flow cytometry); conditions: MV-4-11, 10 µM
Protocol: (§3) Cells (NCI-H929 and MV-4-11) were seeded at a density of 1 × 10^6 cells per well into 6-well dishes. […] Apoptosis was assessed using an Annexin V-FITC kit (#ab14085; Abcam, MA, USA) on a FACS Calibur Flow Cytometer (Becton Dickinson, Franklin Lakes, NJ, USA). For cell cycle analysis, cells were fixed in 75% ethanol (−20°C/overnight), washed with PBS (pH = 7.2–7.4, 1×), treated with RNase A (0.2 mg/mL, 37°C/30 min), stained with PI (10 μg/mL), and analyzed on the same instrument. Finally, the samples were analyzed using a FACS Calibur Flow Cytometer.

[4] = system: control vector NCI-H929 cells; experiment: Cell apoptosis assay, control vector cells
Protocol: […] NCI-H929 and MV-4-11 cells were seeded at a density of 1 × 10^6 cells/well in 6-well tissue culture-treated plates. According to the manufacturer’s protocol (Santa Cruz Biotechnology, Inc, Dallas, TX, USA), CRBN CRISPR/Cas9 knockout Plasmid (#sc-412142), CRBN HDR plasmid (#sc-412142-HDR), UltraCruz® Transfection Reagent (#sc-395739) were pre-mixed in Plasmid Transfection Medium (#sc-108062) at a 1:1:2 mass ratio, and cells were transiently transfected in a 37°C, 5% CO2 incubator. After 72 h of infection, the medium was replaced with complete medium containing 3 μg/mL puromycin for 5–7 days. On day 7, GFP-positive cells were sorted as single cells into 96-well plates. Isolated single-cell clones were screened via western blot analysis, using wild-type NCI-H929 or MV-4-11 cells as positive controls.
as §3

T1 sequence (Q13422 whole entry): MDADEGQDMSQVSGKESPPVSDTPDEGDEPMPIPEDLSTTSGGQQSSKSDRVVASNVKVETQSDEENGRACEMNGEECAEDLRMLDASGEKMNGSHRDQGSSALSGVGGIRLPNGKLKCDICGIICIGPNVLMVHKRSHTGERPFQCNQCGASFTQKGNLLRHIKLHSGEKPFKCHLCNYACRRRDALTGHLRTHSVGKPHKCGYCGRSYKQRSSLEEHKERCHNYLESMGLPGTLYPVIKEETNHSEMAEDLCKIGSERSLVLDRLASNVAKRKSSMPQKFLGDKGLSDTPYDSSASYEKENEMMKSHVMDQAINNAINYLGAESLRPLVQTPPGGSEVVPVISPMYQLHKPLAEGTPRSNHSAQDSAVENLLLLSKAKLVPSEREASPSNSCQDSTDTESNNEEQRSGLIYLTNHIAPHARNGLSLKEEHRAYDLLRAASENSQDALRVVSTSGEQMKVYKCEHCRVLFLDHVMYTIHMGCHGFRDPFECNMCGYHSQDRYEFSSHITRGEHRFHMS
T1 sequence (Q96SW2 whole entry): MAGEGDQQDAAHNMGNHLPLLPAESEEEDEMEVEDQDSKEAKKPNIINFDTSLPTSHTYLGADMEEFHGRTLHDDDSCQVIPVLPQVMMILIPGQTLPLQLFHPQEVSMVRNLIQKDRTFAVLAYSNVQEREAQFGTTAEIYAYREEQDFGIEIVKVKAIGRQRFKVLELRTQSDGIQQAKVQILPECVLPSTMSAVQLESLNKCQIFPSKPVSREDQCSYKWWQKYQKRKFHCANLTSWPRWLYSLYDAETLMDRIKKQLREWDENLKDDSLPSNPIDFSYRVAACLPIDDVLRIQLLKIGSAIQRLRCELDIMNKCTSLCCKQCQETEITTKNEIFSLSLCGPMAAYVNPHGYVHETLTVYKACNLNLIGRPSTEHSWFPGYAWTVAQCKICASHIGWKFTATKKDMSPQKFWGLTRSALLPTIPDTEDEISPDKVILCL
T1 sequence (Q16531 whole entry partner): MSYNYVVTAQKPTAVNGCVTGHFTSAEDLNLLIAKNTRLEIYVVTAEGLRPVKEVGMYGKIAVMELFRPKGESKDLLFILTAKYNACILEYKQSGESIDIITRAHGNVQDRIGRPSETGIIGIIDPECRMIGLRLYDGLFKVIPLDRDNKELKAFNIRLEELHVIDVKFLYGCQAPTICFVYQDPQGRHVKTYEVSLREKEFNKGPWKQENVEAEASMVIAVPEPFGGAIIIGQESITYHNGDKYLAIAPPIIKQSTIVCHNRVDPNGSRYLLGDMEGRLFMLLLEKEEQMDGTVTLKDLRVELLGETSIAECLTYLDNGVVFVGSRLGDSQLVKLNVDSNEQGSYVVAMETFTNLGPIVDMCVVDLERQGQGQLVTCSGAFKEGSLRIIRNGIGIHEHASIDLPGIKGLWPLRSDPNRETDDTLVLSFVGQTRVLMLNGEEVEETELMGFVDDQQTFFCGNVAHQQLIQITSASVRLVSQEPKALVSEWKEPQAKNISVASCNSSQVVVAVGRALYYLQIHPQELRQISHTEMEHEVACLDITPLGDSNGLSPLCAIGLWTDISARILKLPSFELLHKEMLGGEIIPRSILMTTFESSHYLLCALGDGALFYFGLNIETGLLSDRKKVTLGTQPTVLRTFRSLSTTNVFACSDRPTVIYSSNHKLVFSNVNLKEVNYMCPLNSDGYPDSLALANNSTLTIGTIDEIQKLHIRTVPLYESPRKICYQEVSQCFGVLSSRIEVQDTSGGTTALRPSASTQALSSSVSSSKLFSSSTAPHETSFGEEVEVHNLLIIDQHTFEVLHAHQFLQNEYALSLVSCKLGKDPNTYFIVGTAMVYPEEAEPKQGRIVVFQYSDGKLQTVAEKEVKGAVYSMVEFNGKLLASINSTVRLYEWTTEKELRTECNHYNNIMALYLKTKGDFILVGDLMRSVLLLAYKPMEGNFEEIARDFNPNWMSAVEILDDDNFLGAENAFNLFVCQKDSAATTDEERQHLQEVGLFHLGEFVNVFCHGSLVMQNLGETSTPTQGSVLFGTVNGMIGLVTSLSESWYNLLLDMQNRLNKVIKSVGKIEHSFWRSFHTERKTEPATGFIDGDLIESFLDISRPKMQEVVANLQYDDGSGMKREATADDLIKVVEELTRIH
T2 sequence (Q9UKT9 whole entry): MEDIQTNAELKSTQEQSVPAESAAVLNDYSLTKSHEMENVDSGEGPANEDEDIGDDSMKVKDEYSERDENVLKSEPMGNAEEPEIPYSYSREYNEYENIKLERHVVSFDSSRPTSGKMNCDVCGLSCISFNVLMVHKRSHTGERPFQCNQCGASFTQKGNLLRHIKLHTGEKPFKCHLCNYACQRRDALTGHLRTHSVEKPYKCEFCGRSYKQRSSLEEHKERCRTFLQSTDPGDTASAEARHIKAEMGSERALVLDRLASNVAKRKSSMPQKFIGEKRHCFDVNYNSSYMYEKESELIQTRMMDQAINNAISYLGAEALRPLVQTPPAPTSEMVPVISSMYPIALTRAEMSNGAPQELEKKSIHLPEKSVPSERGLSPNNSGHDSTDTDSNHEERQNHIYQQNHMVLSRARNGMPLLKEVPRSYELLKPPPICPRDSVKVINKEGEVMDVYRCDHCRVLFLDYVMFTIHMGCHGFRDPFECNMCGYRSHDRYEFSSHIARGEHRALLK
T2 sequence (Q96SW2 whole entry): as the sequence (Q96SW2 whole entry) above
T2 sequence (Q16531 whole entry partner): as the sequence (Q16531 whole entry partner) above

Row | IC50 (MV-4-11 [1]; MV4-11, 96 h) | IC50 (NCI-H929) | Compound | IC50 (Ocl-Ly3) | antiproliferative activity (in words) [2] | further results
1 | 5.1 ± 0.49 µM | 7.43 ± 0.71 µM | O=C1CCC(NC(=O)c2cccc(C(=O)N3CCOCC3)c2)C(=O)N1 (stereo not shown) [MGD-A14, N-(2,6-dioxopiperidin-3-yl)-3-(morpholine-4-carbonyl)benzamide] | 10.6 ± 1.01 µM | mild activity | 
2 |  | 2.18 ± 0.21 µM | Nc1cccc2c1C(=O)N(C1CCC(=O)NC1=O)C2=O (stereo not shown) [Pomalidomide, reference compound] | 18.3 ± 1.74 µM |  | IC50 (KG-1): 17.2 µM; IC50 (MOLM-13): 12.4 µM; IC50 (MUTZ-1): 17.3 µM; IC50 (MV-4-11 [1]; MV4-11): 16.1 ± 1.54 µM; IC50 (OPM-2): 0.204 µM; IC50 (RPMI-8226): 5.21 µM; IC50 (SU-DHL-4): 22.4 µM; IC50 (Skm-1): 20.1 µM; IC50 (TMD8): 15.3 µM; IC50 (U2932): 13.7 µM; IC50 (U937): 13.8 µM; IC50 (WSU-DLCL-2): 18.1 µM; Dmax (IKZF1-HiBiT): 76.2%; Dmax (IKZF3-HiBiT): 69.4%; apoptosis rate (MV-4-11 [3]): 15.5%; apoptosis (in words) [4]: induced significant apoptosis

Further lines, the compound ahead of its results:

Row | Compound | IC50 (MV-4-11 [1]; MV4-11, 96 h) | IC50 (NCI-H929) | IC50 (Ocl-Ly3) | antiproliferative activity (in words) [2] | further results
3 | O=C1CCC(NC(=O)c2cccc(C(=O)N3CCCC3)c2)C(=O)N1 (stereo not shown) [MGD-A10, N-(2,6-dioxopiperidin-3-yl)-3-(pyrrolidine-1-carbonyl)benzamide] | 8.34 ± 0.79 µM | 14.2 ± 1.36 µM | > 33 µM | mild activity | 
4 | CC1CCN(C(=O)c2cccc(C(=O)NC3CCC(=O)NC3=O)c2)CC1 (stereo not shown) [MGD-A12, N-(2,6-dioxopiperidin-3-yl)-3-(4-methylpiperidine-1-carbonyl)benzamide] | 14.3 ± 1.36 µM | 11.9 ± 1.14 µM | 15.3 ± 1.46 µM |  | fold reduction in potency compared with MGD-A5 ([2]; NCI-H929, MV-4-11 and Ocl-Ly3 cells): more than 3 fold
5 | O=C1CCC(NC(=O)c2cccc(C(=O)N3CCCCC3)c2)C(=O)N1 (stereo not shown) [MGD-A11, N-(2,6-dioxopiperidin-3-yl)-3-(piperidine-1-carbonyl)benzamide] | 5.47 ± 0.52 µM | 8.33 ± 0.8 µM | 23 ± 2.19 µM | mild activity | 
